Assays:
[1] = test system: ISR (p-EIF2α, ATF4, CHOP) in lung tissue; assay: Lung tissue ISR western blot in rat VILI model; format: in vivo
Method: The right lung was harvested. […] For cytokine analysis serum was used.
Total protein from cells and lung tissue were extracted using RIPA lysis buffer. Total protein was quantified with Pierce […] (Thermo Fisher Scientific). Western blotting for phosphorylated (p) and total (t) forms of EIF2α, p- and t-IRE1α, p- and t-PERK, ATF4, CHOP and XBP1 was performed. B-actin was used as loading control (Santa Cruz Biotechnologies, Santa Cruz, Calif.). The following primary antibodies were used: p-EIF2α (Ser 51) and t-EIF2α rabbit monoclonal antibody (Cell Signaling, Danvers, Mass.), p-IRE1α (Ser 724) and t-IRE1α rabbit monoclonal antibody (Abcam, Cambridge, Mass.), ATF4 rabbit polyclonal antibody (Sigma-Aldrich), CHOP (F-168) mouse polyclonal antibody (Santa Cruz), XBP-1 rabbit monoclonal antibody (Abcam) and B-actin mouse polyclonal antibody (Santa Cruz). For immunoprecipitation of PERK, p-PERK (Thr 981) antibody (Santa Cruz) was used and p-PERK (Thr 980) and t-PERK were detected with rabbit monoclonal antibodies (Cell signaling). N=4-8 biological replicates per conditions were used in immunoblot studies. Immunoblots were scanned and bend densities were analyzed using Image J software.

[2] = test system: tight junction proteins (CLDN4, CLDN18) bound to ZO-1 in AEC-I monolayers; assay: Co-immunoprecipitation of tight junction proteins with ZO-1 as bait; format: cell-based, rat; conditions: stretched monolayers (25%, 6 hours), PI pretreatment
Method: The dose of siRNA and PI treatment was selected based on dose-response curves above (FIG. 2A-FIG. 2E). AEC-II transformed to AEC-I cells and formed a complete monolayer by day 4, expressing only AEC-I cell surface markers. On the day of the experiment, the medium was removed and replaced with HEPES-buffered MEM. Cells stretch was performed in a 37° C. incubator. The effect of ISR inhibition or control treatment was compared in the following three conditions (N=5 biological replicates/condition): 1) no stretch (NS) controls; 2) mechanical stretch with 12% surface change (S 12%); and 3) mechanical stretch with 25% surface change (S25%). The cell monolayers were exposed to the above mentioned conditions for 6 hours based on time course of ISR protein expression obtained during preliminary data collection (FIG. 2A-FIG. 2E). All membranes were treated with FITC-labeled streptavidin (Thermo Fisher Scientific) at the end of the experiment and light emission was detected at 488 nm with fluorescent microscopy (Nikon TE300, Melville, N.Y.). In a separate set of experiments (N=30 rats), in which the above mentioned treatment plan and conditions were used, cells were harvested at the end of the experiment by scraping them in RIPA buffer and total protein was extracted (N=3 membranes/treatment group performed for N=5 biological replicates per condition). […]

[3] = test system: integrated stress response (ISR) signaling (p-PERK, p-EIF2α, ATF4, CHOP); assay: Western blot of ISR signaling in stretched AEC-I monolayers; format: cell-based, rat
Text: To obtain monolayer rat type-II alveolar epithelial cells (AEC-II), cells were isolated from Sprague-Dawley rats (250-300 g, N=30 purchased from Charles River Laboratories, Wilmington, Mass.) described by Tschumperlin D J, Margulies SS. Equibiaxial deformation-induced injury of alveolar epithelial cells in vitro. Am J Physiol. 1998; 275(6 Pt 1):L1173-83. Epub 1998/12/09 (PubMed PMID: 9843855), with modifications. Briefly, animals were killed and the lungs were harvested. The lung tissue was digested with elastase at 37° C. and distal airways were isolated. Following, cells were placed on rat IgG coated containing no serum for 90 minutes to eliminate contaminating leukocytes and parenchymal cells. This isolation method yielded approximately 95% pure alveolar epithelial cell population. 1.3 million cells were plated on 1 cm diameter fibronectin-coated custom made silastic membranes. In permeability studies, biotin were mixed with fibronectin and membranes were pretreated with oxygen plasma coating to ensure homogenous distribution of the fibronectin. Cells were cultured with 10% fetal bovine serum (FBS)-containing Minimal Essential Medium (MEM) containing low dose antibiotics for 3 days. 32 to 40 monolayers were per rat. […] RNAiMax transfection reagent treatment using serum free media (Opti-MEM, Thermo Fisher Scientific, Waltham, Mass.). This is a negative control for siRNA experiments where serum free media is used for improved transfection efficiency; • B. non-targeting siRNA treatment ([…], Dharmacon) serves a negative control for transfection; • C. 0.5 μg siRNA treatment targeting PERK; • D. 0.5 μg siRNA treatment targeting ATF4; • E. 0.5 μg siRNA treatment targeting CHOP; • F. vehicle control (DMSO) for PI; and • G. 1 μM PI treatment.
The dose of siRNA and PI treatment was selected based on dose-response curves above (FIG. 2A-FIG. 2E). AEC-II transformed to AEC-I cells and formed a complete monolayer by day 4, expressing only AEC-I cell surface markers. On the day of the experiment, the medium was removed and replaced with HEPES-buffered MEM. Cells stretch was performed in a 37° C. incubator. The effect of ISR inhibition or control treatment was compared in the following three conditions (N=5 biological replicates/condition): 1) no stretch (NS) controls; 2) mechanical stretch with 12% surface change (S 12%); and 3) mechanical stretch with 25% surface change (S25%). The cell monolayers were exposed to the above mentioned conditions for 6 hours based on time course of ISR protein expression obtained during preliminary data collection (FIG. 2A-FIG. 2E). All membranes were treated with FITC-labeled streptavidin (Thermo Fisher Scientific) at the end of the experiment and light emission was detected at 488 nm with fluorescent microscopy (Nikon TE300, Melville, N.Y.). In a separate set of experiments (N=30 rats), in which the above mentioned treatment plan and conditions were used, cells were harvested at the end of the experiment by scraping them in RIPA buffer and total protein was extracted (N=3 membranes/treatment group performed for N=5 biological replicates per condition). Co-immunoprecipitation (IP) assays were performed using 5 μg of ZO-1 protein as bait (IP kit, Thermo Fisher Scientific). Following co-IP, immunoblotting was performed for ZO-1, OCLN and CLDN proteins 4, 7 and 18 (Invitrogen, Carlsbad, Calif.).
Rats (N=106) were euthanized with an overdose of sodium pentobarbital (55 mg/kg). The chest was shaved and cleaned with Wexcide. Tracheostomy was performed, and a 14 gauge (G) metal cannula was inserted in the trachea lumen. The animals were connected to a rodent ventilator (Harvard Apparatus Model 640, Holliston, Mass.). Subsequently, the chest and abdomen were opened by a midline incision, and the aorta was transected causing exsanguination. […]

[4] = ventilated rats (VPI), 30 mg/kg oral gavage 4 hours before ventilation
[5] = stretched AEC-I monolayers, 1 μM PI, 24 hours pretreatment
[6] = unstretched monolayers, 1 μM PI for 18 hours

`Cn1cc(-c2ccc3c(c2)CCN3C(=O)Cc2cccc(C(F)(F)F)c2)c2c(N)ncnc21` [PI, 1-[5-(4-Amino-7-methyl-7H-pyrrolo[2,3-d]pyrimidin-5-yl)indolin-1-yl]-2-(3-trifluoromethylphenyl)ethanone] was tested, and the “p-EIF2α, ATF4 and CHOP in lung tissue” value ([1]; spontaneously breathing controls (CPI), 30 mg/kg oral gavage) was “did not affect”, the “VILI-mediated phosphorylation of EIF2α in lung tissue” value [1, 4] was “significantly reduced” and the “protein expression of ATF4 in lung tissue” value [1, 4] was “significantly reduced”. For the same molecule, the “protein expression of CHOP in lung tissue” value [1, 4] was “significantly reduced”, the “dissociation of CLDN 4 from ZO-1” value [2] was “prevented” and the “dissociation of CLDN 18 from ZO-1” value [2] was “prevented”. For the same molecule, the ATF4 [3, 5] was “decreased”, the CHOP [3, 5] was “decreased” and the p-EIF2α [3, 5] was “decreased”. The p-PERK [3, 5] was “decreased”, the “Level of ATF4” value [3, 6] was “unaffected” and the “Level of CHOP” value [3, 6] was “unaffected”. For the same molecule, the “Level of p-EIF2α” value [3, 6] was “unaffected” and the “Level of p-PERK” value [3, 6] was “unaffected”.
